# Experimental data from US20190321426A1, “COMBINATION THERAPIES WITH CANNABIS PLANT EXTRACT” (TIKUN OLAM LTD, priority 2016, published 2019).
# Assay: Cutaneous wound (skin lesion) at the site of repeated s.c. Copaxone injection in EAE mice
# Type: in vivo
# Conditions: s.c. injection on the mice back; 7 mice/group
# Experimental: The treatments were given daily, five times a week and usually continued for about 60 days. GA were given s.c (at an injection dose of 1 mg/mouse), and cannabis extracts were administrated i.p. (intraperitoneal).
# In mice treated with the Copaxone only (2 out of 7 mice), a skin lesion developed on the mice back at the site of repeated Copaxone injections.
substance,measurement,value
glatiramer acetate [Copaxone],skin lesion at the site of repeated Copaxone injections,2 out of 7
